Measurements from patent US8323919B2, “Assay methods for identifying glycogen synthase kinase 3 modulators” (PerkinElmer BioSignal, Inc., priority 2009, dated 2012).

Molecular target: T1, GSK3β (Homo sapiens, UniProt P49841)
T1 construct: purchased Carna Biosciences
Assay: LANCE Ultra TR-FRET kinase assay: phosphorylation of non-primed ULight-labeled 4E-BP1-derived peptide by GSK3β in the presence of inhibitor
Format: biochemical
Details: GSK3β (Carna Biosciences) 2 nM, ATP 10 μM, ULight-4E-BP1 50 nM, 60 min, DMSO 1%, inhibitor at various concentrations
Procedure: Anti-phosphorylated-4E-BP1 antibody (Thr37/46) labeled with a FRET donor is added and upon irradiation, the proximity of the FRET donor and FRET acceptor produce a signal, shown on the y-axis. The 4E-BP1-derived peptide substrate of SEQ ID No. 7 was used, modified by addition of three amino acids at both the N- and C-termini to facilitate solubilizing the peptide and labeling of the peptide with a FRET acceptor label; and
Anti-phosphorylated-4E-BP1 antibody (Thr37/46) labeled with a FRET donor is added and upon irradiation, the proximity of the FRET donor and FRET acceptor produce a signal, shown on the y-axis The 4E-BP1-derived peptide substrate of SEQ ID No. 7 was used, modified by addition of three amino acids at both the N- and C-termini to facilitate solubilizing the peptide and labeling of the peptide with a FRET acceptor label.
LANCE® Ultra assays are based on time-resolved fluorescence resonance energy transfer (TR-FRET). They use a proprietary europium chelate donor dye, W-1024 (Eu), with ULight®, a small molecular weight acceptor dye with a red fluorescent emission. In kinase assays, the binding of a Eu-labeled anti-phospho-substrate antibody to the phosphorylated ULight-labeled substrate brings donor and acceptor dye molecules into proximity. […]

T1 sequence (P49841 whole entry): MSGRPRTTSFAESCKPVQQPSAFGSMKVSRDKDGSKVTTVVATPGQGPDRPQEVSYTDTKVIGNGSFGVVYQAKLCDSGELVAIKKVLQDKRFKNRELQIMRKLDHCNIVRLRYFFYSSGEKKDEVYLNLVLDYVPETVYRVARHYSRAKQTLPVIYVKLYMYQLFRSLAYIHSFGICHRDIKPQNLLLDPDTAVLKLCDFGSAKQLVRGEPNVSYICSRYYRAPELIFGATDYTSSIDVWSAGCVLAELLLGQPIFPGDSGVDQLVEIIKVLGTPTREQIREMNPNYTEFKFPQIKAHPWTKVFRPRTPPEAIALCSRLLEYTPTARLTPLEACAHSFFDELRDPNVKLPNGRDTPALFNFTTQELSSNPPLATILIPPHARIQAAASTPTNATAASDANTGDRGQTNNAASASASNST

GSK3β activity on a 4E-BP1 GSK3 substrate	SMILES
inhibited	Cn1cc(C2=C(c3ccc(Cl)cc3Cl)C(=O)NC2=O)c2ccccc21 [SB216763]
inhibited	O=C1Cc2c([nH]c3ccc(Br)cc23)-c2ccccc2N1 [kenpaullone]
